In US20240217978A1 (CHONG KUN DANG PHARMACEUTICAL CORP., priority 2021, published 2024):

target: human adenosine A2a receptor (Homo sapiens (Human), UniProt P29274); test: A2a receptor binding affinity, [3H]-NECA radioligand binding test; details: [3H]-NECA 37 nM; membrane from HEK-293 cells transfected with human adenosine A2a receptor
Summary of the method: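 Membranes from HEK-293 cells expressing human A2a receptor were incubated with [3H]-NECA (final 37 nM) and compound for 1 h at room temperature in 50 mM Tris, 10 mM MgCl2, 1 mM EDTA, pH 7.4. Bound ligand was filtered on PEI-coated plates and counted by scintillation to derive IC50 (μM).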

Chain of human adenosine A2a receptor (P29274 whole entry): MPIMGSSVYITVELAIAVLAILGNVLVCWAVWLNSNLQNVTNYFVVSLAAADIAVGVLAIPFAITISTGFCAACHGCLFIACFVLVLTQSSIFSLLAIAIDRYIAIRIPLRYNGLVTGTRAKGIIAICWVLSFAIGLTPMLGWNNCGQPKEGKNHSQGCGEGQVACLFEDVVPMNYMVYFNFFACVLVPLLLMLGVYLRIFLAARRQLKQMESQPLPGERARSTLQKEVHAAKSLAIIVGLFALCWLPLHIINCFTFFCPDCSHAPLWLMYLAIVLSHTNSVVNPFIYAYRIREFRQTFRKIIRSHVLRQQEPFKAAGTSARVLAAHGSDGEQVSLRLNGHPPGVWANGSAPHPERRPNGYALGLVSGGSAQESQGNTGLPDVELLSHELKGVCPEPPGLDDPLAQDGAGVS

Row | SMILES | IC50 [µM]
1 | COC[C@H](Nc1nc(N)n2nc(-c3ccco3)nc2n1)C(=O)N1CCN(CC(F)(F)F)CC1 [Example 306, (S)-2-((7-amino-2-(furan-2-yl)-[1,2,4]triazolo[1,5-a][1,3,5]triazin-5-yl)amino)-3-methoxy-1-(4-(2,2,2-trifluoroethyl)piperazin-1-yl)propan-1-one] | 0.03
2 | CCOC[C@H](Nc1nc(N)n2nc(-c3ccco3)nc2n1)C(=O)N1CCN(c2ncccn2)CC1 [Example 307, (S)-2-((7-amino-2-(furan-2-yl)-[1,2,4]triazolo[1,5-a][1,3,5]triazin-5-yl)amino)-3-ethoxy-1-(4-(pyrimidin-2-yl)piperazin-1-yl)propan-1-one] | 0.007
3 | CCOC[C@H](Nc1nc(N)n2nc(-c3ccco3)nc2n1)C(=O)N1CCN(CC(F)(F)F)CC1 [Example 308, (S)-2-((7-amino-2-(furan-2-yl)-[1,2,4]triazolo[1,5-a][1,3,5]triazin-5-yl)amino)-3-ethoxy-1-(4-(2,2,2-trifluoroethyl)piperazin-1-yl)propan-1-one] | 0.013
4 | Nc1nc(N2CCC[C@H]2C(=O)N2CCn3nc(C(F)(F)F)nc3C2)nc2nc(-c3ccco3)nn12 [Example 309] | 0.021
5 | COCCOc1ccc(N2CCN(C(=O)[C@@H]3CCCN3c3nc(N)n4nc(-c5ccco5)nc4n3)CC2)cc1 [Example 310, (S)-(1-(7-amino-2-(furan-2-yl)-[1,2,4]triazolo[1,5-a][1,3,5]triazin-5-yl)pyrrolidin-2-yl)(4-(4-(2-methoxyethoxy)phenyl)piperazin-1-yl)methanone] | 0.012
6 | Cc1ccc(-c2nc3nc(N4CC[C@H]4C(=O)N4CCN(CC(F)(F)C(F)(F)F)CC4)nc(N)n3n2)o1 [Example 313, (S)-(1-(7-amino-2-(5-methylfuran-2-yl)-[1,2,4]triazolo[1,5-a][1,3,5]triazin-5-yl)azetidin-2-yl)(4-(2,2,3,3,3-pentafluoropropyl)piperazin-1-yl)methanone] | 0.005
7 | Cc1ccc(-c2nc3nc(N4CC[C@H]4C(=O)N4CCN(C(=O)CC(C)(C)O)CC4)nc(N)n3n2)o1 [Example 315, (S)-1-(4-(1-(7-amino-2-(5-methylfuran-2-yl)-[1,2,4]triazolo[1,5-a][1,3,5]triazin-5-yl)azetidine-2-carbonyl)piperazin-1-yl)-3-hydroxy-3-methylbutan-1-one] | 0.016
8 | C[C@H](Nc1nc(N)n2nc(-c3ccco3)nc2n1)C(=O)N1CCN(CC(C)(F)F)CC1 [Example 317, (S)-2-((7-amino-2-(furan-2-yl)-[1,2,4]triazolo[1,5-a][1,3,5]triazin-5-yl)amino)-1-(4-(2,2-difluoropropyl)piperazin-1-yl)propan-1-one] | 0.013
9 | C[C@H](Nc1nc(N)n2nc(-c3ccco3)nc2n1)C(=O)N1CCN(CC(F)(F)C(F)F)CC1 [Example 318, (S)-2-((7-amino-2-(furan-2-yl)-[1,2,4]triazolo[1,5-a][1,3,5]triazin-5-yl)amino)-1-(4-(2,2,3,3-tetrafluoropropyl)piperazin-1-yl)propan-1-one] | 0.019
10 | C[C@H](Nc1nc(N)n2nc(-c3ccco3)nc2n1)C(=O)N1CCN(CC(F)(F)C(F)(F)F)CC1 [Example 319, (S)-2-((7-amino-2-(furan-2-yl)-[1,2,4]triazolo[1,5-a][1,3,5]triazin-5-yl)amino)-1-(4-(2,2,3,3,3-pentafluoropropyl)piperazin-1-yl)propan-1-one] | 0.015
11 | C[C@H](Nc1nc(N)n2nc(-c3ccco3)nc2n1)C(=O)N1CCN(CC(F)(F)C(F)(F)C(F)(F)F)CC1 [Example 320, (S)-2-((7-amino-2-(furan-2-yl)-[1,2,4]triazolo[1,5-a][1,3,5]triazin-5-yl)amino)-1-(4-(2,2,3,3,4,4,4-heptafluorobutyl)piperazin-1-yl)propan-1-one] | 0.002

Now from value to compound:

Row | IC50 [µM] | SMILES
12 | 0.002 | Cc1ccc(-c2nc3nc(N4CCC[C@H]4C(=O)N4CCN(CC(C)(F)F)CC4)nc(N)n3n2)o1 [Example 311, (S)-(1-(7-amino-2-(5-methylfuran-2-yl)-[1,2,4]triazolo[1,5-a][1,3,5]triazin-5-yl)pyrrolidin-2-yl)(4-(2,2-difluoropropyl)piperazin-1-yl)methanone]
13 | 0.002 | Cc1ccc(-c2nc3nc(N4CC[C@H]4C(=O)N4CCN(CC(F)(F)C(F)F)CC4)nc(N)n3n2)o1 [Example 312, (S)-(1-(7-amino-2-(5-methylfuran-2-yl)-[1,2,4]triazolo[1,5-a][1,3,5]triazin-5-yl)azetidin-2-y1)(4-(2,2,3,3-tetrafluoropropyl)piperazin-1-yl)methanone]
14 | 0.019 | Cc1ccc(-c2nc3nc(N4CC[C@H]4C(=O)N4CCN(CC(C)(F)F)CC4)nc(N)n3n2)o1 [Example 314, (S)-(1-(7-amino-2-(5-methylfuran-2-yl)-[1,2,4]triazolo[1,5-a][1,3,5]triazin-5-yl)azetidin-2-yl)(4-(2,2-difluoropropyl)piperazin-1-yl)methanone]
15 | 0.026 | C[C@H](Nc1nc(N)n2nc(-c3ccco3)nc2n1)C(=O)N1CCN(CC(F)F)CC1 [Example 316, (S)-2-((7-amino-2-(furan-2-yl)-[1,2,4]triazolo[1,5-a][1,3,5]triazin-5-yl)amino)-1-(4-(2,2-difluoroethyl)piperazin-1-yl)propan-1-one]
16 | 0.002 | Cn1cc(N2CCN(C(=O)[C@@H]3CCCN3c3nc(N)n4nc(-c5ccco5)nc4n3)CC2)cn1 [Example 321, (S)-(1-(7-amino-2-(furan-2-yl)-[1,2,4]triazolo[1,5-a][1,3,5]triazin-5-yl)pyrrolidin-2-yl)(4-(1-methyl-1H-pyrazol-4-yl)piperazin-1-yl)methanone]
17 | 0.006 | CC(C)(F)CN1CCC(C2CCN(C(=O)[C@@H]3CCN3c3nc(N)n4nc(-c5ccco5)nc4n3)CC2)CC1 [Example 322, (S)-(1-(7-amino-2-(furan-2-yl)-[1,2,4]triazolo[1,5-a][1,3,5]triazin-5-yl)azetidin-2-yl)(1′-(2-fluoro-2-methylpropyl)-[4,4′-bipiperidin]-1-yl) methanone]
18 | 0.003 | Nc1nc(N2CC[C@H]2C(=O)N2CCC(C3CCN(CC(F)F)CC3)CC2)nc2nc(-c3ccco3)nn12 [Example 323, (S)-(1-(7-amino-2-(furan-2-yl)-[1,2,4]triazolo[1,5-a][1,3,5]triazin-5-yl)azetidin-2-yl)(1′-(2,2-difluoroethyl)-[4,4′-bipiperidin]-1-yl)methanone]
19 | 0.005 | CC(F)(F)CN1CCC(C2CCN(C(=O)[C@@H]3CCN3c3nc(N)n4nc(-c5ccco5)nc4n3)CC2)CC1 [Example 324, (S)-(1-(7-amino-2-(furan-2-yl)-[1,2,4]triazolo[1,5-a][1,3,5]triazin-5-yl)azetidin-2-yl)(1′-(2,2-difluoropropyl)-[4,4′-bipiperidin]-1-yl)methanone]
20 | 0.008 | Nc1nc(N2CC[C@H]2C(=O)N2CCC(C3CCN(CC(F)(F)C(F)F)CC3)CC2)nc2nc(-c3ccco3)nn12 [Example 325, (S)-(1-(7-amino-2-(furan-2-yl)-[1,2,4]triazolo[1,5-a][1,3,5]triazin-5-yl)azetidin-2-yl)(1′-(2,2,3,3-tetrafluoropropyl)-[4,4′-bipiperidin]-1-yl)methanone]
21 | 0.0008 | Nc1nc(N2CC[C@H]2C(=O)N2CCC(C3CCN(CC(F)(F)C(F)(F)F)CC3)CC2)nc2nc(-c3ccco3)nn12 [Example 326, (S)-(1-(7-amino-2-(furan-2-yl)-[1,2,4]triazolo[1,5-a][1,3,5]triazin-5-yl)azetidin-2-yl)(1′-(2,2,3,3,3-pentafluoropropyl)-[4,4′-bipiperidin]-1-yl)methanone]
22 | 0.011 | CC(C)(O)CC(=O)N1CCC(C2CCN(C(=O)[C@@H]3CCN3c3nc(N)n4nc(-c5ccco5)nc4n3)CC2)CC1 [Example 327, (S)-1-(1′-(1-(7-amino-2-(furan-2-yl)-[1,2,4]triazolo[1,5-a][1,3,5]triazin-5-yl)azetidine-2-carbonyl)-[4,4′-bipiperidin]-1-yl)-3-hydroxy-3-methylbutan-1-one]
23 | 0.025 | CCCCN1CCC(C2CCN(C(=O)[C@@H]3CCN3c3nc(N)n4nc(-c5ccco5)nc4n3)CC2)CC1 [Example 328, (S)-(1-(7-amino-2-(furan-2-yl)-[1,2,4]triazolo[1,5-a][1,3,5]triazin-5-yl)azetidin-2-yl)(1′-butyl-[4,4′-bipiperidin]-1-yl)methanone]
24 | 0.026 | COCCN1CCC(C2CCN(C(=O)[C@@H]3CCN3c3nc(N)n4nc(-c5ccco5)nc4n3)CC2)CC1 [Example 329, (S)-(1-(7-amino-2-(furan-2-yl)-[1,2,4]triazolo[1,5-a][1,3,5]triazin-5-yl)azetidin-2-yl)(1′-(2-methoxyethyl)-[4,4′-bipiperidin]-1-yl)methanone]
25 | 0.011 | Nc1nc(N2CCC[C@H]2C(=O)N2CCN(CC3CCC(C(F)(F)F)CC3)CC2)nc2nc(-c3ccco3)nn12 (stereo partly drawn) [Example 330, (S)-(1-(7-amino-2-(furan-2-yl)-[1,2,4]triazolo[1,5-a][1,3,5]triazin-5-yl)pyrrolidin-2-yl)(4-((4-(trifluoromethyl)cyclohexyl)methyl)piperazin-1-yl)methanone]
26 | 0.01 | Nc1nc(N2CCC[C@H]2C(=O)N2CCC(CN3CCC(C(F)(F)F)CC3)CC2)nc2nc(-c3ccco3)nn12 [Example 331, (S)-(1-(7-amino-2-(furan-2-yl)-[1,2,4]triazolo[1,5-a][1,3,5]triazin-5-yl)pyrrolidin-2-yl)(4-((4-(trifluoromethyl)piperidin-1-yl)methyl)piperidin-1-yl)methanone]
27 | 0.005 | C[C@H](Nc1nc(N)n2nc(-c3ccco3)nc2n1)C(=O)N1CCC(C2CCN(CC(C)(C)F)CC2)CC1 [Example 332, (S)-2-((7-amino-2-(furan-2-yl)-[1,2,4]triazolo[1,5-a][1,3,5]triazin-5-yl)amino)-1-(1′-(2-fluoro-2-methylpropyl)-[4,4′-bipiperidin]-1-yl)propan-1-one]
